Here are results for seven molecules from paper PMC6407587, “Inhibition potential of phenolic constituents from the aerial parts of Tetrastigma hemsleyanum against soluble epoxide hydrolase and nitric oxide synthase” (Journal of Enzyme Inhibition and Medicinal Chemistry, 2019).

Series [1] deals with T1, sEH (Homo sapiens, UniProt P34913).
T1 sequence (P34913 1-555): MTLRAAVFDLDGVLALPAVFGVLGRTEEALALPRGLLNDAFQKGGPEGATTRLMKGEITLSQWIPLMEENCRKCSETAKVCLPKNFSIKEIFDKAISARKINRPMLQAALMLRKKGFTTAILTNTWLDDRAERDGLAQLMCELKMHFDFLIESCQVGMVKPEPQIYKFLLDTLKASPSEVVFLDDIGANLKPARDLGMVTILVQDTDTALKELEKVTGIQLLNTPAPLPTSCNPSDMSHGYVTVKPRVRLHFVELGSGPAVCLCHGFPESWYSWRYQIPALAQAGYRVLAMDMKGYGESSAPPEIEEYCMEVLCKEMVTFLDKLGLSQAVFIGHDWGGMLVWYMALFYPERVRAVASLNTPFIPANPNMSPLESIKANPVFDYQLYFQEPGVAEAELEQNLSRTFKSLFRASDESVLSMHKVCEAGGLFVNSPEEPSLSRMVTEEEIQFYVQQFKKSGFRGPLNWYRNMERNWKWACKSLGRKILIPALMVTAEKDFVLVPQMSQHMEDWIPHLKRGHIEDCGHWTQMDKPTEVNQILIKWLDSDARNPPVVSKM
Kind of series: sEH inhibitory activity, fluorescence assay with PHOME substrate. The series is classed as biochemical. To be noted: for IC50: PHOME substrate, dose-dependent response curve; for inhibition at 100 µM / Inhibition on sEH at 100 µM (%): 100 µM compound, tested three times.

Series [2] deals with T1, sEH. Kind of series: sEH binding mechanism, Dixon and Lineweaver-Burk plots at different substrate and inhibitor concentrations. The series is classed as biochemical. The following applies: for Ki: Dixon plots; for Type of sEH inhibition: Dixon / Lineweaver-Burk plots.
The test system of series [3] is LPS-induced NO production in macrophage RAW 264.7 cells (iNOS). The series can be described thus: Inhibition of LPS-induced NO production in RAW 264.7 macrophages (Griess reaction, measure of iNOS activity).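 As to all read-outs here: cells pretreated with compound for 2 h, then stimulated 24 h with LPS at 500 ng/ml, supernatant nitrite quantified by absorbance at 550 nm against a nitrite standard curve.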 The series is classed as cell-based. To be noted: for inhibition at 50 µM / IC50: Mus musculus; for inhibition at 50 µM / Inhibition of NO production at 50 µM (%): 50 µM compound, LPS-stimulated RAW264.7 cells; for inhibition at 50 µM: read-out: Inhibition of NO production at 50 µM (%); for IC50: RAW264.7, LPS-stimulated RAW264.7 cells, means ± SE, n = 3.

The subject of the next series is X-box binding protein 1. On the set-up: method as in PMID 26475664. To be noted: related to ulcerative colitis; cited from earlier work.
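For Cytotoxicity in RAW 264.7 cells (MTT) in this document: viability gauged by mitochondrial reductase turning MTT into formazan, optical density read at 570 nm, with untreated control cells set as 100% viability.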

Molecule `COC(=O)C1(O)CC(O)C(OC(=O)C=Cc2ccc(O)c(O)c2)C(O)C1` (centres unmarked) [Compound 8] had an IC50 against sEH [1] of 9.4 ± 0.2 µM. Moreover, at sEH [2], the affinity, expressed as Ki, was 13.7 µM. Besides, in series [3], the inhibition at 50 µM was 25.2%. The “Cytotoxicity in RAW 264.7 cells (MTT)” value in the series with RAW 264.7 cells is given as “did not exhibit significant cytotoxicity”.
Regarding `O=c1c(O)c(-c2ccc(O)cc2)oc2cc(O)cc(O)c12` [Compound 10, kaempferol], on sEH [1], the inhibition at 100 µM turned out to be 58 ± 2% and the half-maximal inhibitory concentration (IC50) was 6.8 ± 2.4 µM. On sEH [2], the “Type of sEH inhibition” value is given as “Non-competitive” and affinity was put at a Ki of 18.6 µM. Further, in series [3], the midpoint of inhibition, the IC50, lay at 15.6 ± 1.6 µM and the inhibition at 50 µM is 93%. Further, the “Cytotoxicity in RAW 264.7 cells (MTT)” value in the series with RAW 264.7 cells was “did not exhibit significant cytotoxicity”.
On sEH [1], `O=c1cc(-c2ccc(O)cc2)oc2cc(O)cc(O)c12` [Compound 12, apigenin] returned an inhibition at 100 µM of 92.4 ± 2% and an IC50 of 7.2 ± 0.3 µM. Besides, at sEH [2], the “Type of sEH inhibition” value is “Non-competitive” and the affinity corresponds to a Ki of 24.4 µM. Besides, in series [3], inhibition was half-maximal at 12.2 ± 0.1 µM (IC50) and the inhibition at 50 µM was 98.9%. Also, the “Cytotoxicity in RAW 264.7 cells (MTT)” value in the series on RAW 264.7 cells was “did not exhibit significant cytotoxicity”.
Regarding `C[C@@H]1O[C@@H](OC[C@H]2O[C@@H](Oc3c(-c4ccc(O)c(O)c4)oc4cc(O)cc(O)c4c3=O)[C@H](O)[C@@H](O)[C@@H]2O)[C@H](O)[C@H](O)[C@H]1O` [Compound 16], on sEH [1], the “Inhibition on sEH at 100 µM (%)” value stood at 95.2 ± 0.2% and the concentration for half-maximal inhibition (IC50) is 6.2 ± 0.1 µM. In addition, the “Type of sEH inhibition” value at sEH [2] is “non-competitive”. The “Inhibition of NO production at 50 µM (%)” value in series [3] is on record as 26.2%. The “Cytotoxicity in RAW 264.7 cells (MTT)” value in the series with RAW 264.7 cells is “did not exhibit significant cytotoxicity”.
On the same counts, the results for `CC(=O)O[C@H]1[C@H](OC[C@H]2O[C@@H](Oc3c(-c4ccc(O)c(O)c4)oc4cc(O)cc(O)c4c3=O)[C@H](O)[C@@H](O)[C@@H]2O)O[C@@H](C)[C@H](O)[C@H]1O` [Compound 17] are 83.8 ± 3.7%, 9.5 ± 0.1 µM, “non-competitive”, 29.9% and “did not exhibit significant cytotoxicity”.
For `COc1cc(C2c3cc(O)c(OC)cc3CC(CO)C2COC2OC(C)C(O)C(O)C2O)ccc1O` (centres unmarked) [Compound 18], at sEH [1], the “sEH inhibitory activity (in words)” value was “weak inhibitory activity” and the inhibition at 100 µM was found to be 52.3 ± 2.6%. Further, the inhibition at 50 µM in series [3] was 32.1%. In addition, in the series on RAW 264.7 cells, the “Cytotoxicity in RAW 264.7 cells (MTT)” value is reported as “did not exhibit significant cytotoxicity”. The “Transcriptional activation of X-box binding protein 1” value in the series on X-box binding protein 1 is on record as “remarkable transcriptional activation”.
Consider `O=c1ccc2cc(O)c(O)cc2o1` [Compound 19], for which the IC50 at sEH [1] worked out at 4.5 ± 0.2 µM; in series [3] it was 47.3 ± 6.9 µM. The same molecule showed an inhibition constant Ki at sEH [2] of 10.2 µM. Moreover, the inhibition at 50 µM in series [3] came out at 50.1%. Also, in the series on RAW 264.7 cells, the “Cytotoxicity in RAW 264.7 cells (MTT)” value is given as “did not exhibit significant cytotoxicity”.
